In ChEMBL document CHEMBL1136837, “Unified QSAR approach to antimicrobials. 4. Multi-target QSAR modeling and comparative multi-distance study of the giant components of antiviral drug-drug complex networks” (Bioorg Med Chem, 2009):
pIC50: −log10 of the molar value.

Key:
Picornaviridae = experiment: Antiviral activity against Human picornavirus; format: functional, organism-based
Human gammaherpesvirus 4 = experiment: Antiviral activity against Epstein-Barr virus; format: functional, organism-based
Human alphaherpesvirus 1 = experiment: Antiviral activity against Herpes simplex virus 1; format: functional, organism-based; conditions: Human alphaherpesvirus 1
Human alphaherpesvirus 2 = experiment: Antiviral activity against Herpes simplex virus 2; format: functional, organism-based; conditions: Human alphaherpesvirus 2
Human betaherpesvirus 5 = experiment: Antiviral activity against Human cytomegalovirus; format: functional, organism-based; conditions: Human betaherpesvirus 5
Human gammaherpesvirus 8 = experiment: Antiviral activity against Human herpesvirus 8; format: functional, organism-based
Human alphaherpesvirus 3 = experiment: Antiviral activity against Varicella zoster virus; format: functional, organism-based
Influenza B virus = experiment: Antiviral activity against influenza B virus; format: functional, organism-based
Influenza A virus = experiment: Antiviral activity against influenza H1N1 virus; format: functional, organism-based
Influenza A virus H3N2 = experiment: Antiviral activity against influenza H3N2 virus; format: functional, organism-based, H3N2 subtype
Coxsackievirus = experiment: Antiviral activity against Coxsackievirus; format: functional, organism-based
Echovirus = experiment: Antiviral activity against Echovirus; format: functional, organism-based
Enterovirus = experiment: Antiviral activity against Enterovirus; format: functional, organism-based
Human rhinovirus sp. = experiment: Antiviral activity against Human rhinovirus; format: functional, organism-based
Hepatitis C virus = experiment: Antiviral activity against Hepatitis C virus c; format: functional, organism-based, Hepacivirus hominis
Cowpox virus = experiment: Antiviral activity against Cowpox virus; format: functional, organism-based
Monkeypox virus = experiment: Antiviral activity against Monkeypox virus; format: functional, organism-based
Vaccinia virus = experiment: Antiviral activity against Vaccinia virus; format: functional, organism-based, Orthopoxvirus vaccinia
[1] = test system: Human immunodeficiency virus 1; experiment: Antiviral activity against HIV1; format: functional, organism-based
[2] = test system: unidentified influenza virus; experiment: Antiviral activity against influenza virus; format: functional, organism-based
Enterovirus C = experiment: Antiviral activity against Poliovirus; format: functional, organism-based
Respirovirus muris = experiment: Antiviral activity against Sendai virus; format: functional, organism-based
H2N2 subtype = experiment: Antiviral activity against influenza H2N2 virus; format: functional, organism-based; conditions: Influenza A virus
H5N1 subtype = experiment: Antiviral activity against influenza H5N1 virus; format: functional, organism-based; conditions: Influenza A virus
Human adenovirus 2 = experiment: Antiviral activity against Human adenovirus 2; format: functional, organism-based; conditions: Human mastadenovirus C
Simplexvirus = experiment: Antiviral activity against Herpes simplex virus; format: functional, organism-based
Human betaherpesvirus 6 [3] = experiment: Antiviral activity against Human herpesvirus 6A; format: functional, organism-based
Human betaherpesvirus 6 [4] = experiment: Antiviral activity against Human herpesvirus 6B; format: functional, organism-based
Camelpox virus = experiment: Antiviral activity against Camelpox virus; format: functional, organism-based
[5] = test system: Human parainfluenza virus 2; experiment: Antiviral activity against Human parainfluenza virus 2; format: functional, organism-based; conditions: Human orthorubulavirus 2
Human respirovirus 1 = experiment: Antiviral activity against Human parainfluenza virus 1; format: functional, organism-based
Human respirovirus 3 = experiment: Antiviral activity against Human parainfluenza virus 3; format: functional, organism-based
Influenza C virus = experiment: Antiviral activity against Influenza C virus; format: functional, organism-based

Nc1nc2ccc(/C(=N/O)c3ccccc3)nn2c1-c1ccccc1
pIC50 (Picornaviridae): 7.40

Nc1ncnc2c1ncn2/C=C1/CC1(CO)CO
pIC50 (Human gammaherpesvirus 4): 3.78 | pIC50 (Human alphaherpesvirus 1): 3.39 | pIC50 (Human alphaherpesvirus 2): 3.39 | pIC50 (Human betaherpesvirus 5): 4.92 | pIC50 (Human gammaherpesvirus 8): 4.24 | pIC50 (Human alphaherpesvirus 3): 3.39

NC12CC3CC(CC(C3)C1)C2 [AMANTADINE]
pIC50 (Influenza B virus): 4.30 | pIC50 (Influenza A virus): 4.30 | pIC50 (Influenza A virus H3N2): 6.20

CCO/N=C/c1ccc(OCCC2CCN(c3ccc(Cl)nn3)CC2)cc1
pIC50 (Coxsackievirus): 6.08 | pIC50 (Echovirus): 7.17 | pIC50 (Enterovirus): 9.00 | pIC50 (Human rhinovirus sp.): 7.59

CNC(=O)/C=C(\c1ccccc1)c1ccc2nc(NCC(=O)NC)c(-c3ccc(F)cc3)n2n1
pIC50 (Picornaviridae): 6.96

C=C[C@@H]1C[C@]1(NC(=O)[C@@H]1C[C@@H](Oc2cc(-c3ccccc3)nc3cc(OC)ccc23)CN1C(=O)[C@H](CC(C)C)NC(=O)OC(C)(C)C)C(=O)O
pIC50 (Hepatitis C virus): 6.31

Nc1ccn(C[C@H]2COP(=O)(O)CO2)c(=O)n1 [CYCLIC CIDOFOVIR]
pIC50 (Cowpox virus): 4.29 | pIC50 (Monkeypox virus): 3.12 | pIC50 (Vaccinia virus; Orthopoxvirus vaccinia): 4.68

CNC(=O)/C=C(\c1ccc(C)cc1)c1ccc2nc(NCC(=O)NC)c(-c3ccc(F)cc3)n2n1
pIC50 (Picornaviridae): 6.64

O=c1n(Cc2nc3ccccc3n2CCCCO)c2cnccc2n1C1CC1
pIC50 [1]: 3.70 | pIC50 (Human rhinovirus sp.): 3.70 | pIC50 [2]: 3.70 | pIC50 (Enterovirus C): 3.70 | pIC50 (Respirovirus muris): 4.60

CCOC(=O)C1=C[C@@H](OC(CC)CC)[C@H](NC(C)=O)[C@@H](N)C1 [OSELTAMIVIR]
pIC50 (Influenza B virus): 5.68 | pIC50 (Influenza A virus): 5.60 | pIC50 (H2N2 subtype): 5.84 | pIC50 (Influenza A virus H3N2): 6.59 | pIC50 (H5N1 subtype): 4.47 | pIC50 [2]: 4.35

CC(=O)N[C@H]1[C@H]([C@H](O)[C@H](O)CO)OC(C(=O)O)=C[C@@H]1NC(=N)N [ZANAMIVIR]
pIC50 (H2N2 subtype): 6.12 | pIC50 (Influenza A virus H3N2): 6.17 | pIC50 (H5N1 subtype): 6.66

Nc1nc(N)c2ncn(/C=C3\CC3(CO)CO)c2n1
pIC50 (Human alphaherpesvirus 1): 3.42 | pIC50 (Human alphaherpesvirus 2): 3.42 | pIC50 (Human betaherpesvirus 5): 5.48 | pIC50 (Human gammaherpesvirus 8): 3.78 | pIC50 (Human alphaherpesvirus 3): 4.41

Nc1nc2ccc(/C(=N/O)c3ccccc3)nn2c1-c1ccc(F)cc1
pIC50 (Picornaviridae): 7.30

Nc1ccn(C[C@@H](CO)OCP(=O)(O)O)c(=O)n1 (stereo in doubt; form 1) [CIDOFOVIR]
pIC50 (Human adenovirus 2): 5.51 | pIC50 (Simplexvirus): 5.48 | pIC50 (Cowpox virus): 4.32 | pIC50 (Human betaherpesvirus 5): 7.22 | pIC50 (Monkeypox virus): 3.30 | pIC50 (Vaccinia virus): 4.64

CCC(CC)O[C@@H]1C=C(C(=O)O)C[C@H](N)[C@H]1NC(C)=O [OSELTAMIVIR CARBOXYLATE]
pIC50 (Influenza B virus): 7.82 | pIC50 (Influenza A virus): 8.41 | pIC50 (H2N2 subtype): 9.77 | pIC50 (Influenza A virus H3N2): 9.22

O[C@@H]1[C@H](O)[C@H](O)CO[C@H]1n1c(Br)nc2cc(Cl)c(Cl)cc21
pIC50 (Human betaherpesvirus 6 [3]): 3.90 | pIC50 (Human betaherpesvirus 6 [4]): 4.02

NC(=O)c1ncn([C@@H]2O[C@H](CO)[C@@H](O)[C@H]2O)n1 [RIBAVIRIN]
pIC50 (Human adenovirus 2): 4.00 | pIC50 (Camelpox virus): 3.67 | pIC50 (Cowpox virus): 3.39 | pIC50 (Influenza B virus): 4.72 | pIC50 (Influenza A virus): 5.11 | pIC50 (H2N2 subtype): 4.86 | pIC50 (Influenza A virus H3N2): 4.70 | pIC50 (Monkeypox virus): 3.84 | pIC50 (Vaccinia virus; Orthopoxvirus vaccinia): 3.55

CC(C)C(=O)N[C@H]1[C@H]([C@H](O)[C@H](O)CO)OC(C(=O)O)=C[C@@H]1N=[N+]=[N-]
pIC50 [5]: 5.66 | pIC50 (Respirovirus muris): 7.00

CCC(CC)C(NC(C)=O)C1C(NC(=N)N)CC(C(=O)O)C1O (stereo not drawn)
pIC50 (Influenza A virus H3N2): 6.85

OC[C@H]1O[C@@H](n2c(Br)nc3cc(Cl)c(Cl)cc32)[C@H](O)[C@@H]1O
pIC50 (Human betaherpesvirus 6 [3]): 3.90 | pIC50 (Human betaherpesvirus 6 [4]): 3.90

Nc1nc2ccc(/C(=N/Nc3ccccc3)c3ccccc3)nn2c1-c1ccc(F)cc1
pIC50 (Picornaviridae): 5.00

CC(C)Nc1nc2cc(Cl)c(Cl)cc2n1[C@H]1O[C@@H](CO)[C@H](O)[C@@H]1O [MARIBAVIR]
pIC50 (Human betaherpesvirus 6 [3]): 3.90 | pIC50 (Human betaherpesvirus 6 [4]): 3.97

CNC(=O)/C=C(\c1ccc(OC)cc1)c1ccc2nc(NCC(=O)NC)c(-c3ccc(F)cc3)n2n1
pIC50 (Picornaviridae): 6.22

Nc1nc2c(ncn2/C=C2\CC2(CO)CO)c(=O)[nH]1
pIC50 (Human gammaherpesvirus 4): 3.92 | pIC50 (Human alphaherpesvirus 1): 3.42 | pIC50 (Human alphaherpesvirus 2): 3.42 | pIC50 (Human betaherpesvirus 5): 3.91 | pIC50 (Human betaherpesvirus 6 [3]): 3.94 | pIC50 (Human betaherpesvirus 6 [4]): 4.37 | pIC50 (Human gammaherpesvirus 8): 3.72 | pIC50 (Human alphaherpesvirus 3): 3.42

CC(C)C(=O)N[C@H]1[C@H]([C@H](O)[C@H](O)CO)OC(C(=O)O)=C[C@@H]1NS(=O)(=O)C(Cl)Cl
pIC50 (Human respirovirus 1): 5.92 | pIC50 [5]: 5.72 | pIC50 (Human respirovirus 3): 5.70 | pIC50 (Respirovirus muris): 5.74

C/C=C\[C@@H]1C[C@H](C(=O)O)N[C@H]1[C@@H](NC(C)=O)[C@](C)(CCC)OC
pIC50 (Human respirovirus 1): 4.85

NC(=O)c1nc(F)cnc1O
pIC50 (Influenza B virus): 7.05 | pIC50 (Influenza C virus): 7.36 | pIC50 (Influenza A virus): 6.80 | pIC50 (H2N2 subtype): 7.32

Nc1ccn(/C=C2/CC2(CO)CO)c(=O)n1
pIC50 (Human gammaherpesvirus 4): 4.35 | pIC50 (Human alphaherpesvirus 1): 3.35 | pIC50 (Human alphaherpesvirus 2): 3.35 | pIC50 (Human betaherpesvirus 5): 4.85 | pIC50 (Human gammaherpesvirus 8): 3.71 | pIC50 (Human alphaherpesvirus 3): 3.35
